This is an account of results in the NIST ThermoML archive (doi:10.1021/je0602925).

This series can be described thus: activity coefficient (dimensionless); of the first substance listed, at infinite dilution; xn = mol fraction of the nth substance listed. The conditions noted are these: Liquid, Chromatography, x1 = 0.

Numbers after ± are expanded uncertainties.

As to `CCCCCCCC` [octane] + CCCCCCCCCCCCCC[P+](CCCCCC)(CCCCCC)CCCCCC.[Cl-], the activity coefficient stood at 0.847 ± 0.054 (308.15 K), 0.831 ± 0.054 (318.15 K) and 0.821 ± 0.053 (328.15 K).
For `C1CCCCC1` [cyclohexane] + CCCCCCCCCCCCCC[P+](CCCCCC)(CCCCCC)CCCCCC.[Cl-], the activity coefficient runs as follows: (308.15 K) 0.631 ± 0.044; (318.15 K) 0.627 ± 0.043; (328.15 K) 0.625 ± 0.043.
For `CCCCCCCC` [octane] + CCCCCCCCCCCCCC[P+](CCCCCC)(CCCCCC)CCCCCC.F[B-](F)(F)F the same measures were 1.15 ± 0.073, 1.11 ± 0.071 and 1.09 ± 0.069.
For `C#CCCCCC` [1-heptyne] + CCCCCCCCCCCCCC[P+](CCCCCC)(CCCCCC)CCCCCC.O=S(=O)([N-]S(=O)(=O)C(F)(F)F)C(F)(F)F the same measures were 0.485 ± 0.037, 0.496 ± 0.038 and 0.502 ± 0.038.
With `C1CCCC1` [cyclopentane] + CCCCCCCCCCCCCC[P+](CCCCCC)(CCCCCC)CCCCCC.O=S(=O)([N-]S(=O)(=O)C(F)(F)F)C(F)(F)F, the activity coefficient (308.15 K) is 0.562 ± 0.04, the activity coefficient (318.15 K) turned out to be 0.559 ± 0.04 and the activity coefficient (328.15 K) was found to be 0.558 ± 0.04.
In the case of `C=CCCCCC` [1-heptene] + CCCCCCCCCCCCCC[P+](CCCCCC)(CCCCCC)CCCCCC.[Cl-], the activity coefficient reads like this: (308.15 K) 0.523 ± 0.039; (318.15 K) 0.515 ± 0.038; (328.15 K) 0.511 ± 0.038.
`C=CCCCC` [hex-1-ene] + CCCCCCCCCCCCCC[P+](CCCCCC)(CCCCCC)CCCCCC.O=S(=O)([N-]S(=O)(=O)C(F)(F)F)C(F)(F)F: the activity coefficient reads like this: (308.15 K) 0.501 ± 0.038; (318.15 K) 0.494 ± 0.038; (328.15 K) 0.49 ± 0.037.
Regarding `C#CCCCCCC` [1-octyne] + CCCCCCCCCCCCCC[P+](CCCCCC)(CCCCCC)CCCCCC.O=S(=O)([N-]S(=O)(=O)C(F)(F)F)C(F)(F)F, the activity coefficient is, setting by setting: (308.15 K) 0.511 ± 0.038; (318.15 K) 0.524 ± 0.039; (328.15 K) 0.532 ± 0.039.
On to `C#CCCCC` [1-hexyne] + CCCCCCCCCCCCCC[P+](CCCCCC)(CCCCCC)CCCCCC.[Cl-], for which the activity coefficient (308.15 K) was 0.449 ± 0.036, the activity coefficient (318.15 K) turned out to be 0.461 ± 0.036 and the activity coefficient (328.15 K) was 0.468 ± 0.037.
For `CCO` [ethanol] + CCCCCCCCCCCCCC[P+](CCCCCC)(CCCCCC)CCCCCC.F[B-](F)(F)F the same measures were 5.59 ± 0.38, 5.36 ± 0.36 and 5.14 ± 0.35.
Turning to `CCCCCCC` [heptane] + CCCCCCCCCCCCCC[P+](CCCCCC)(CCCCCC)CCCCCC.F[B-](F)(F)F, the activity coefficient is 1 ± 0.063 (308.15 K), 0.97 ± 0.061 (318.15 K) and 0.952 ± 0.06 (328.15 K).
Turning to `C#CCCCC` [1-hexyne] + CCCCCCCCCCCCCC[P+](CCCCCC)(CCCCCC)CCCCCC.F[B-](F)(F)F, the activity coefficient (308.15 K) stood at 0.345 ± 0.032, the activity coefficient (318.15 K) came to 0.358 ± 0.033 and the activity coefficient (328.15 K) was 0.366 ± 0.033.
As to `CCCCCCC` [heptane] + CCCCCCCCCCCCCC[P+](CCCCCC)(CCCCCC)CCCCCC.[Cl-], the activity coefficient was found to be 0.816 ± 0.053 (308.15 K), 0.803 ± 0.052 (318.15 K) and 0.795 ± 0.052 (328.15 K).
With `C=CCCCC` [hex-1-ene] + CCCCCCCCCCCCCC[P+](CCCCCC)(CCCCCC)CCCCCC.[Cl-], the activity coefficient reads like this: (308.15 K) 0.477 ± 0.037; (318.15 K) 0.471 ± 0.037; (328.15 K) 0.468 ± 0.037.
For `C#CCCCCCC` [1-octyne] + CCCCCCCCCCCCCC[P+](CCCCCC)(CCCCCC)CCCCCC.F[B-](F)(F)F the same measures were 0.387 ± 0.034, 0.406 ± 0.034 and 0.417 ± 0.035.
In the case of `C=CCCCC` [hex-1-ene] + CCCCCCCCCCCCCC[P+](CCCCCC)(CCCCCC)CCCCCC.F[B-](F)(F)F, the activity coefficient is 0.57 ± 0.041 (308.15 K), 0.558 ± 0.04 (318.15 K) and 0.551 ± 0.04 (328.15 K).
